{
  "source": "patent US5668133A",
  "about": "“Ophthalmic compositions comprising emedastine and methods for their use” (priority 1995, dated 1997)",
  "system": "histamine-induced vascular permeability in guinea pig conjunctiva",
  "test": "histamine-induced vascular permeability in guinea pig conjunctiva, topical ocular pretreatment",
  "format": "in vivo, guinea pig (Male Dunkin Hartley)",
  "conditions": "for Wheal Area × Intensity: 1 min pretreatment",
  "protocol": "The topical ocular antihistaminic effect of emedastine difumarate was assessed in a model of histamine induced vascular permeability in guinea pig conjunctiva. The potency of emedastine difumarate in this model was then compared with those of reference antihistamines.\nMale Dunkin Hartley Viral Antibody Free outbred guinea pigs (Charles River Labs, Portage, Mich.), weighing approximately 250-350 grams (6/group) were injected intravenously (i.v.) via the marginal ear vein with 1.0 mL of Evans Blue dye (1.0 mg/mL). Forty-five (45) minutes post dye injection, 20 μL of test compound or saline vehicle was applied topically to one eye of each experimental animal. […] Responses were quantitated as described by Yanni et al. in Int. Arch. Allergy Immunol., 101:102-106 (1993). Response scores from the treated groups were then compared with scores obtained in the saline-treated group using Dunnett's t test (Dunnett C. W., \"A multiple comparison procedure for comparing treatments with a control.\" J. Am. Stat. Assoc. 50:1096-1121(1955)). Regression analysis was used to determine relative potency (Bliss, C. and E. Gjorgy. In Vitamin Methods, Vol. 2, pp. 445-610, Academic Press, Inc., New York, 1951.).",
  "key": {"[1]": {"conditions": "topically 1 minute before histamine challenge"}},
  "data": [
    {"smiles": "CCOCCn1c(N2CCCN(C)CC2)nc2ccccc21", "note": "[Emedastine Difumarate, 1-(2-ethoxyethyl)-2-(4-methyl-1-homopiperazinyl)-benzimidazole]", "values": [
      {"measurement": "Wheal Area × Intensity", "setting": "0.0001 wt %, antazoline experiment (NaCl 285 ± 19)", "value": "159 ± 31"},
      {"measurement": "Wheal Area × Intensity", "setting": "0.0001 wt %, ketotifen/pheniramine experiment (NaCl 276 ± 10)", "value": "159 ± 26"},
      {"measurement": "Wheal Area × Intensity", "setting": "0.0001 wt %, pyrilamine experiment (NaCl 308 ± 20)", "value": "166 ± 14"},
      {"measurement": "Wheal Area × Intensity", "setting": "0.001 wt %, antazoline experiment (NaCl 285 ± 19)", "value": "109 ± 14"},
      {"measurement": "Wheal Area × Intensity", "setting": "0.001 wt %, ketotifen/pheniramine experiment (NaCl 276 ± 10)", "value": "141 ± 38"},
      {"measurement": "Wheal Area × Intensity", "setting": "0.001 wt %, pyrilamine experiment (NaCl 308 ± 20)", "value": "104 ± 20"},
      {"measurement": "Wheal Area × Intensity", "setting": "0.01 wt %, antazoline experiment (NaCl 285 ± 19)", "value": "55 ± 12"},
      {"measurement": "Wheal Area × Intensity", "setting": "0.01 wt %, ketotifen/pheniramine experiment (NaCl 276 ± 10)", "value": "45 ± 18"},
      {"measurement": "Wheal Area × Intensity", "setting": "0.01 wt %, levocabastine experiment (NaCl 336 ± 78)", "value": "26 ± 27"},
      {"measurement": "Wheal Area × Intensity", "setting": "0.01 wt %, pyrilamine experiment (NaCl 308 ± 20)", "value": "57 ± 16"},
      {"measurement": "ED50 (text)", "setting": "1 minute prior to histamine challenge", "value": 0.0002, "unit": "%"},
      {"measurement": "inhibition of the vascular permeability response", "setting": "1 minute, 30 minutes, 2, 4 or 8 hours prior to challenge", "value": "inhibited in concentration-dependent fashion"},
      {"measurement": "Wheal Area × Intensity (X ± S.D.)", "setting": "30 min pretreatment, 0.000001 wt %, clemastine experiment (NaCl 350 ± 31)", "value": "265 ± 35"},
      {"measurement": "Wheal Area × Intensity (X ± S.D.)", "setting": "30 min pretreatment, 0.000006 wt %, ketotifen experiment (NaCl 214 ± 41)", "value": "154 ± 62"},
      {"measurement": "Wheal Area × Intensity (X ± S.D.)", "setting": "30 min pretreatment, 0.000006 wt %, pyrilamine experiment (NaCl 194 ± 41)", "value": "136 ± 42"},
      {"measurement": "Wheal Area × Intensity (X ± S.D.)", "setting": "30 min pretreatment, 0.00001 wt %, antazoline experiment (NaCl 287 ± 20)", "value": "197 ± 57"},
      {"measurement": "Wheal Area × Intensity (X ± S.D.)", "setting": "30 min pretreatment, 0.00001 wt %, brompheniramine experiment (NaCl 219 ± 20)", "value": "191 ± 48"},
      {"measurement": "Wheal Area × Intensity (X ± S.D.)", "setting": "30 min pretreatment, 0.00001 wt %, chlorpheniramine experiment (NaCl 217 ± 35)", "value": "161 ± 68"},
      {"measurement": "Wheal Area × Intensity (X ± S.D.)", "setting": "30 min pretreatment, 0.00001 wt %, clemastine experiment (NaCl 350 ± 31)", "value": "165 ± 30"},
      {"measurement": "Wheal Area × Intensity (X ± S.D.)", "setting": "30 min pretreatment, 0.00001 wt %, diphenhydramine experiment (NaCl 214 ± 34)", "value": "163 ± 32"},
      {"measurement": "Wheal Area × Intensity (X ± S.D.)", "setting": "30 min pretreatment, 0.00001 wt %, levocabastine/pheniramine experiment (NaCl 252 ± 30)", "value": "191 ± 27"},
      {"measurement": "Wheal Area × Intensity (X ± S.D.)", "setting": "30 min pretreatment, 0.00006 wt %, ketotifen experiment (NaCl 214 ± 41)", "value": "91 ± 26"},
      {"measurement": "Wheal Area × Intensity (X ± S.D.)", "setting": "30 min pretreatment, 0.00006 wt %, pyrilamine experiment (NaCl 194 ± 41)", "value": "75 ± 22"},
      {"measurement": "Wheal Area × Intensity (X ± S.D.)", "setting": "30 min pretreatment, 0.0001 wt %, antazoline experiment (NaCl 287 ± 20)", "value": "65 ± 32"},
      {"measurement": "Wheal Area × Intensity (X ± S.D.)", "setting": "30 min pretreatment, 0.0001 wt %, brompheniramine experiment (NaCl 219 ± 20)", "value": "104 ± 47"},
      {"measurement": "Wheal Area × Intensity (X ± S.D.)", "setting": "30 min pretreatment, 0.0001 wt %, chlorpheniramine experiment (NaCl 217 ± 35)", "value": "112 ± 58"},
      {"measurement": "Wheal Area × Intensity (X ± S.D.)", "setting": "30 min pretreatment, 0.0001 wt %, clemastine experiment (NaCl 350 ± 31)", "value": "70 ± 27"},
      {"measurement": "Wheal Area × Intensity (X ± S.D.)", "setting": "30 min pretreatment, 0.0001 wt %, diphenhydramine experiment (NaCl 214 ± 34)", "value": "98 ± 22"},
      {"measurement": "Wheal Area × Intensity (X ± S.D.)", "setting": "30 min pretreatment, 0.0001 wt %, levocabastine/pheniramine experiment (NaCl 252 ± 30)", "value": "137 ± 24"},
      {"measurement": "Wheal Area × Intensity (X ± S.D.)", "setting": "30 min pretreatment, 0.0006 wt %, ketotifen experiment (NaCl 214 ± 41)", "value": "16 ± 14"},
      {"measurement": "Wheal Area × Intensity (X ± S.D.)", "setting": "30 min pretreatment, 0.0006 wt %, pyrilamine experiment (NaCl 194 ± 41)", "value": "6 ± 7"},
      {"measurement": "Wheal Area × Intensity (X ± S.D.)", "setting": "30 min pretreatment, 0.001 wt %, antazoline experiment (NaCl 287 ± 20)", "value": "4 ± 4"},
      {"measurement": "Wheal Area × Intensity (X ± S.D.)", "setting": "30 min pretreatment, 0.001 wt %, brompheniramine experiment (NaCl 219 ± 20)", "value": "8 ± 9"},
      {"measurement": "Wheal Area × Intensity (X ± S.D.)", "setting": "30 min pretreatment, 0.001 wt %, chlorpheniramine experiment (NaCl 217 ± 35)", "value": "18 ± 23"},
      {"measurement": "Wheal Area × Intensity (X ± S.D.)", "setting": "30 min pretreatment, 0.001 wt %, clemastine experiment (NaCl 350 ± 31)", "value": "6 ± 7"},
      {"measurement": "Wheal Area × Intensity (X ± S.D.)", "setting": "30 min pretreatment, 0.001 wt %, diphenhydramine experiment (NaCl 214 ± 34)", "value": "12 ± 19"},
      {"measurement": "Wheal Area × Intensity (X ± S.D.)", "setting": "30 min pretreatment, 0.001 wt %, levocabastine/pheniramine experiment (NaCl 252 ± 30)", "value": "7 ± 9"},
      {"measurement": "Potency", "setting": "30 min pretreatment, relative to emedastine difumarate = 1.0, (95% Confidence limits)", "value": 1.0},
      {"measurement": "potency compared to ketotifen", "setting": "30 minute treatment interval", "value": "equipotent"},
      {"measurement": "times more potent than brompheniramine", "setting": "30 minute treatment interval", "value": 7, "unit": "times"},
      {"measurement": "times more potent than chlorpheniramine", "setting": "30 minute treatment interval", "value": 7, "unit": "times"},
      {"measurement": "times more potent than clemastine", "setting": "30 minute treatment interval", "value": 10, "unit": "times"},
      {"measurement": "times more potent than diphenhydramine", "setting": "30 minute treatment interval", "value": 3333, "unit": "times"},
      {"measurement": "times more potent than levocabastine", "setting": "30 minute treatment interval", "value": 100, "unit": "times"},
      {"measurement": "times more potent than pyrilamine", "setting": "30 minute treatment interval", "value": 10, "unit": "times"},
      {"measurement": "times more potent than pheniramine", "setting": "30 minute treatment interval, approximate, lack of parallelism", "value": "approximately 357 times"},
      {"measurement": "ED50 (text)", "setting": "30 minutes prior to histamine challenge", "value": 0.000035, "unit": "%"},
      {"measurement": "ED50 (text)", "setting": "2 hours prior to histamine challenge", "value": 0.0029, "unit": "%"},
      {"measurement": "ED50 (text)", "setting": "4 hours prior to histamine challenge", "value": 0.019, "unit": "%"},
      {"measurement": "ED50 (text)", "setting": "8 hours prior to histamine challenge", "value": 0.19, "unit": "%"},
      {"measurement": "ED50", "setting": "pretreatment 1 min", "value": 0.0002, "unit": "wt %"},
      {"measurement": "Percent Change", "setting": "pretreatment 1 min, 0.0001 wt %", "value": -44, "unit": "%"},
      {"measurement": "Percent Change", "setting": "pretreatment 1 min, 0.001 wt %", "value": -62, "unit": "%"},
      {"measurement": "Percent Change", "setting": "pretreatment 1 min, 0.01 wt %", "value": -81, "unit": "%"},
      {"measurement": "ED50", "setting": "pretreatment 30 min", "value": 0.000035, "unit": "wt %"},
      {"measurement": "Percent Change", "setting": "pretreatment 30 min, 0.000006 wt %", "value": -28, "unit": "%"},
      {"measurement": "Percent Change", "setting": "pretreatment 30 min, 0.00006 wt %", "value": -58, "unit": "%"},
      {"measurement": "Percent Change", "setting": "pretreatment 30 min, 0.0006 wt %", "value": -93, "unit": "%"},
      {"measurement": "ED50", "setting": "pretreatment 2 hr", "value": 0.0029, "unit": "wt %"},
      {"measurement": "Percent Change", "setting": "pretreatment 2 hr, 0.001 wt %", "value": -35, "unit": "%"},
      {"measurement": "Percent Change", "setting": "pretreatment 2 hr, 0.005 wt %", "value": -53, "unit": "%"},
      {"measurement": "Percent Change", "setting": "pretreatment 2 hr, 0.01 wt %", "value": -72, "unit": "%"},
      {"measurement": "ED50", "setting": "pretreatment 4 hr", "value": 0.019, "unit": "wt %"},
      {"measurement": "Percent Change", "setting": "pretreatment 4 hr, 0.001 wt % (first line)", "value": -9, "unit": "%"},
      {"measurement": "Percent Change", "setting": "pretreatment 4 hr, 0.1 wt %", "value": -84, "unit": "%"},
      {"measurement": "Percent Change", "setting": "pretreatment 4 hr, 1.0 wt %", "value": -95, "unit": "%"},
      {"measurement": "ED50", "setting": "pretreatment 8 hr", "value": 0.19, "unit": "wt %"},
      {"measurement": "Percent Change", "setting": "pretreatment 8 hr, 0.01 wt %", "value": -5, "unit": "%"},
      {"measurement": "Percent Change", "setting": "pretreatment 8 hr, 0.05 wt %", "value": -33, "unit": "%"},
      {"measurement": "Percent Change", "setting": "pretreatment 8 hr, 0.1 wt %", "value": -43, "unit": "%"},
      {"measurement": "Percent Change", "setting": "pretreatment 8 hr, 0.5 wt %", "value": -66, "unit": "%"},
      {"measurement": "Percent Change", "setting": "pretreatment 8 hr, 1.0 wt %", "value": -71, "unit": "%"},
      {"measurement": "onset and duration of action", "setting": "topical ocular administration", "value": "rapid onset and an acceptable duration of action"},
      {"measurement": "times more potent than antazoline", "setting": "topical, 0.5 h", "value": "~5813", "unit": "times"},
      {"measurement": "potency compared to pyrilamine", "setting": "[1]", "value": "approximately equipotent"},
      {"measurement": "times more potent than antazoline", "setting": "[1]", "value": 17, "unit": "times"},
      {"measurement": "times more potent than ketotifen", "setting": "[1]", "value": 3, "unit": "times"},
      {"measurement": "times more potent than pheniramine", "setting": "[1]", "value": 8, "unit": "times"}
    ]}
  ]
}
